Consider 11 molecules from ChEMBL document CHEMBL1201862, “PubChem BioAssay data set” (2004).

The structures appear in SMILES notation.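 Interpolation was linear, between the two tested concentrations surrounding the appropriate level; five concentrations were tested over 48 hours in 96-well plates. Abbreviation: GI50, concentration required for 50% inhibition of growth.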 Active and inactive are the calls of the source. Cut-off read from the data, not from the text of the source: active = GI50 up to about 1.1 µM and inactive = higher.

Among the test systems are Malme-3M; RPMI-8226; PC-3; UO-31; NCI-H522; MOLT-4; LOX IMVI; MCF7; MDA-MB-231; KM12; A549; SK-MEL-28; SN12C; COLO 205; Hs-578T; OVCAR-5; UACC-62; SK-MEL-5; NCI-H23; SK-OV-3.
Holding throughout (experiment): growth of human tumour cells (NCI), 48 h

Regarding `CCNc1ccc2c(c1)Cc1ccccc1-2`, the GI50 is 67.9 µM (inactive) in the experiment on Malme-3M; 47.3 µM (inactive) in the experiment on RPMI-8226; 35.4 µM (inactive) with PC-3; 52.4 µM (inactive) with UO-31; 32.7 µM (inactive) in the experiment with NCI-H522; 12.9 µM (inactive) in the experiment with MOLT-4. Besides, the GI50 with LOX IMVI is 32.3 µM (inactive); in the experiment with MCF7 it was 23.7 µM (inactive); in the experiment on MDA-MB-231, 64.1 µM (inactive); in the experiment with KM12, 26.1 µM (inactive); in the experiment with A549, 73.5 µM (inactive); in the experiment on SK-MEL-28, > 100 µM (inactive). The GI50 in the experiment with SN12C is 64 µM (inactive); in the experiment with COLO 205, 64.9 µM (inactive); in the experiment on Hs-578T, 65.2 µM (inactive); with OVCAR-5 it was > 100 µM (inactive); in the experiment with UACC-62, 40.7 µM (inactive); in the experiment with SK-MEL-5 it was 25.8 µM (inactive). Moreover, the GI50 in the experiment with NCI-H23 is 14.3 µM (inactive).
For the molecule `COc1ccccc1C1=C2C(=O)N(C)C(c3ccccc3OC)=C2C(=O)N1C`, the GI50 with Malme-3M was 45.4 µM (inactive); in the experiment with PC-3 it was > 100 µM (inactive); in the experiment with UO-31, 50.8 µM (inactive); with NCI-H522, 43.2 µM (inactive); with MOLT-4 it was > 100 µM (inactive); in the experiment with LOX IMVI it was > 100 µM (inactive). The GI50 with MCF7 was > 100 µM (inactive); with MDA-MB-231, 48.1 µM (inactive); with KM12, > 100 µM (inactive); in the experiment with A549 it was 44.1 µM (inactive); in the experiment with SK-MEL-28, 76.6 µM (inactive); with SN12C, > 100 µM (inactive). The GI50 with COLO 205 is > 100 µM (inactive); with Hs-578T it was 43.8 µM (inactive); with SK-OV-3 it was 69.8 µM (inactive); in the experiment on OVCAR-5, > 100 µM (inactive); with UACC-62, > 100 µM (inactive); with SK-MEL-5, > 100 µM (inactive). Also, in the experiment with NCI-H23, the GI50 is 59 µM (inactive).
In the case of `CC(C)=CCc1cc(/C=C/C(=O)O)cc(CC=C(C)C)c1O` [ARTEPILLIN], the GI50 in the experiment with RPMI-8226 was 76.6 µM (inactive); in the experiment with PC-3, > 100 µM (inactive); with UO-31, 87.5 µM (inactive); in the experiment with NCI-H522, 31.3 µM (inactive); with MOLT-4 it was > 100 µM (inactive); with LOX IMVI it was 43.7 µM (inactive). Further, the GI50 was > 100 µM (inactive) with MCF7; > 100 µM (inactive) in the experiment on MDA-MB-231; 76 µM (inactive) in the experiment on KM12; > 100 µM (inactive) in the experiment on A549; > 100 µM (inactive) in the experiment on SN12C; > 100 µM (inactive) with COLO 205. The GI50 in the experiment with Hs-578T was > 100 µM (inactive); in the experiment with SK-OV-3 it was > 100 µM (inactive); in the experiment on OVCAR-5, > 100 µM (inactive); in the experiment on UACC-62, 66.8 µM (inactive); in the experiment with SK-MEL-5, > 100 µM (inactive); with NCI-H23, > 100 µM (inactive).
For the molecule `C(=C\c1cc(-c2ccc3ccccc3n2)nc2ccc3ccccc3c12)/c1ccc2ccccc2n1`, the GI50 in the experiment on Malme-3M, in the experiment with RPMI-8226, in the experiment on PC-3, with UO-31, with MOLT-4 and in the experiment on LOX IMVI was > 100 µM (inactive) in each case. Also, the GI50 with MCF7, in the experiment on MDA-MB-231, in the experiment on KM12, with A549, in the experiment with SK-MEL-28 and in the experiment with SN12C was > 100 µM (inactive) throughout. The GI50 in the experiment on COLO 205 is > 100 µM (inactive); with Hs-578T, 29.4 µM (inactive); in the experiment with SK-OV-3, > 100 µM (inactive); in the experiment on OVCAR-5, > 100 µM (inactive); in the experiment with UACC-62 it was > 100 µM (inactive); in the experiment with SK-MEL-5, > 100 µM (inactive). The GI50 in the experiment with NCI-H23 was > 10 µM (inactive).
For `COc1cc(OCc2ccc3nc(-c4ccccc4)c(Cl)nc3c2)cc(OC)c1OC`, the GI50 was 26.3 µM (inactive) with Malme-3M; > 100 µM (inactive) in the experiment with RPMI-8226; > 100 µM (inactive) in the experiment on PC-3; > 100 µM (inactive) in the experiment with UO-31; 33.3 µM (inactive) with NCI-H522; > 100 µM (inactive) with MOLT-4. In addition, the GI50 in the experiment with LOX IMVI is > 100 µM (inactive); in the experiment with MCF7, 59.7 µM (inactive); in the experiment with MDA-MB-231, 39.1 µM (inactive); in the experiment on KM12 it was > 100 µM (inactive); in the experiment on A549, > 100 µM (inactive); in the experiment on SK-MEL-28, > 100 µM (inactive). For the same molecule, the GI50 in the experiment with SN12C was > 100 µM (inactive); in the experiment on COLO 205, > 100 µM (inactive); with Hs-578T it was 39.6 µM (inactive); in the experiment with OVCAR-5, 77.1 µM (inactive); in the experiment on UACC-62 it was 83.2 µM (inactive); in the experiment with SK-MEL-5 it was 20.5 µM (inactive). For the same molecule, in the experiment with NCI-H23, the GI50 is 40.3 µM (inactive).
Take `c1cnn(C23C4C5C6C4C2C6C53)c1` (stereo not given): the GI50 with RPMI-8226, in the experiment with PC-3, with NCI-H522, in the experiment with MOLT-4, with LOX IMVI and in the experiment with MCF7 was > 100 µM (inactive) in each case. Further, the GI50 in the experiment with MDA-MB-231, in the experiment on KM12, in the experiment with A549, with SK-MEL-28, in the experiment on SN12C and in the experiment on COLO 205 was > 100 µM (inactive) in each case. Also, the GI50 in the experiment on Hs-578T, in the experiment on SK-OV-3, with OVCAR-5, in the experiment on SK-MEL-5 and in the experiment with NCI-H23 was > 100 µM (inactive) in each case.
With `O=C(NCc1ccc(Cl)cc1)c1cc2sccc2nc1C(F)(F)F`, the GI50 with Malme-3M was 42.3 µM (inactive); with RPMI-8226, > 100 µM (inactive); with PC-3, 48 µM (inactive); with UO-31, 30.5 µM (inactive); in the experiment on NCI-H522, 29.7 µM (inactive); with MOLT-4, > 100 µM (inactive). The GI50 in the experiment with MCF7 was 61 µM (inactive); with MDA-MB-231, 31.3 µM (inactive); in the experiment with KM12, 87.1 µM (inactive); in the experiment on A549 it was 34.2 µM (inactive); in the experiment with SK-MEL-28, 55.7 µM (inactive); with SN12C, 44.8 µM (inactive). Also, the GI50 in the experiment with COLO 205 was > 100 µM (inactive); in the experiment on Hs-578T, 19.8 µM (inactive); in the experiment on SK-OV-3, 34 µM (inactive); with OVCAR-5, > 100 µM (inactive); with UACC-62, 35.2 µM (inactive); in the experiment on SK-MEL-5, 49.7 µM (inactive). For the same molecule, in the experiment on NCI-H23, the GI50 was 45.5 µM (inactive).
For the molecule `Cc1nc2c(cc1OCc1ccccc1)C(=O)C1=C(C2=O)C2OC(=O)CC2OC1(C)C` (stereo not given), the GI50 in the experiment on Malme-3M was 0.474 µM (active); in the experiment on RPMI-8226 it was 0.368 µM (active); in the experiment on PC-3, 0.56 µM (active); with UO-31, 1.68 µM (inactive); with NCI-H522, 0.149 µM (active); in the experiment on MOLT-4 it was 0.358 µM (active). Further, the GI50 was 0.215 µM (active) in the experiment with LOX IMVI; 0.173 µM (active) in the experiment with MCF7; 0.43 µM (active) in the experiment on MDA-MB-231; 0.531 µM (active) with KM12; 6.44 µM (inactive) in the experiment on A549; 0.33 µM (active) in the experiment on SK-MEL-28. Also, the GI50 in the experiment with SN12C was 0.182 µM (active); in the experiment on COLO 205, 0.326 µM (active); in the experiment with Hs-578T, 0.169 µM (active); with OVCAR-5 it was 0.973 µM (active); in the experiment on UACC-62 it was 0.174 µM (active); in the experiment with SK-MEL-5 it was 1.18 µM (inactive). Also, in the experiment with NCI-H23, the GI50 was 0.944 µM (active).
With `CCCCCCCc1ccc(-c2nnc(/N=N/c3ccc(OCCCCC)cc3)s2)s1`, the GI50 with Malme-3M, with RPMI-8226, in the experiment on PC-3, in the experiment with UO-31, in the experiment with NCI-H522 and in the experiment on MOLT-4 was > 100 µM (inactive) throughout. In addition, the GI50 in the experiment with MCF7, in the experiment on MDA-MB-231, in the experiment with KM12, with A549, with SK-MEL-28 and with SN12C was > 100 µM (inactive) in each case. In addition, the GI50 with COLO 205, in the experiment with Hs-578T, with SK-OV-3, with OVCAR-5, in the experiment on UACC-62 and with SK-MEL-5 was > 100 µM (inactive) in each case. The GI50 in the experiment with NCI-H23 was > 100 µM (inactive).
For the molecule `CC(CCCCNC(=O)OC(C)(C)C)NC(=O)NC(C)CCCCNC(=O)OC(C)(C)C` (stereo not given), the GI50 was > 100 µM (inactive) in the experiment with Malme-3M; > 100 µM (inactive) in the experiment with PC-3; > 100 µM (inactive) in the experiment on UO-31; > 100 µM (inactive) in the experiment on NCI-H522; 41.8 µM (inactive) in the experiment with MOLT-4; > 100 µM (inactive) in the experiment with LOX IMVI. Also, the GI50 in the experiment with MCF7 was 95.3 µM (inactive); with MDA-MB-231, > 100 µM (inactive); with KM12, > 100 µM (inactive); in the experiment on A549 it was > 100 µM (inactive); in the experiment with SK-MEL-28, > 100 µM (inactive); with SN12C, > 100 µM (inactive). The GI50 in the experiment with COLO 205 is 56.6 µM (inactive); with Hs-578T, > 100 µM (inactive); in the experiment on SK-OV-3, > 100 µM (inactive); in the experiment on OVCAR-5, > 100 µM (inactive); with UACC-62, 73.6 µM (inactive); in the experiment on SK-MEL-5 it was 30 µM (inactive). The GI50 with NCI-H23 was > 100 µM (inactive).
As to `CCOP(=O)(Nc1ccccc1P(=O)(OCC)OCC)OCC`, the GI50 in the experiment on Malme-3M, in the experiment with RPMI-8226, with PC-3, in the experiment on UO-31, with NCI-H522 and in the experiment with MOLT-4 was > 100 µM (inactive) throughout. Besides, the GI50 with MCF7, in the experiment on MDA-MB-231, in the experiment on KM12, in the experiment with A549, in the experiment on SK-MEL-28 and in the experiment on COLO 205 was > 100 µM (inactive) each time. The GI50 in the experiment on Hs-578T, in the experiment with SK-OV-3, with OVCAR-5, in the experiment with UACC-62, in the experiment on SK-MEL-5 and in the experiment with NCI-H23 was > 100 µM (inactive) throughout.
